Assay results: patent US9170253B2, “Method and device for measuring multiple physiological properties of cells” (Seahorse Bioscience, priority 2003, dated 2015)

Assays:
[1] = tested on: C2C12 Myoblasts; test: Effect of 2,4 DNP on O2, CO2 and pH flux rates of C2C12 myoblasts (prototype enclosed sample chamber); format: cell-based, murine; details: for CO2 Rate / O2 Rate / pH Rate: 20 minute measurement
Text: (§1) The device included a cylindrical vessel, fabricated from polycarbonate material, and designed to receive a 12 mm diameter, polycarbonate membrane assembly (Corning Snapwell™ P/N 3802) with a pore size of approximately 3 μm. A cylindrical polycarbonate cover could be temporarily inserted into the vessel to form a smaller sample chamber, approximately 1.5 mm high, with a volume of about 160 microliter (μl). A series of bores around the perimeter of the vessel allowed the insertion of three 500 μm diameter optical fibers. The distal tip of each optical fiber was coated with a fluorescent sensing material to form a biosensor.
(§2) The three biosensors were designed to measure the partial pressures of O2 and CO2, and the pH of the media contained within the vessel. One fiber tip was coated with a matrix of Ruthenium dyes, encapsulated in oxygen permeable silicone rubber, to provide a readout of dissolved oxygen concentration. A second fiber tip was coated with a complex of Fluoroscene dye encapsulated in silicone rubber, to provide a readout of H^+ ion concentration (pH). A third biosensor was fabricated by using a CO2 permeable membrane to create a small reservoir of NaHCO3 surrounding a HydroxyPyrene Trisodium Salt (HPTS) pH sensitive dye. A change in CO2 concentration in the cell media would then cause a change in pH of this encapsulated reagent resulting in a measurable change in the fluorescent properties of the pH sensitive dye, and this change was calibrated to provide quantitative CO2 concentration data.
(§3) To determine the extracellular flux rates of O2 and CO2, the rates of change of partial pressures were divided by volume of each analytes available in the media (moles) to result in a value expressed in nmol/minute. The rate of acidification was expressed in mpH units/min (multiplied by 20 for scaling on the chart), but can easily be shown as protons per minute by calculating the number of available […] in the media buffer within the known sample volume.
In this experiment, C2C12 myoblasts were seeded on 12 mm diameter polycarbonate membranes and incubated for 12 hours. Wells were then removed from the incubator, inspected visually, and placed into the measurement device. 160 μl of NaHCO3-free DMEM medium was then added, and the device was assembled to form an enclosed sample chamber.
(§4) The dissolved concentrations of O2 and CO2, and the pH in the media were then measured every 5 seconds for a period of 20 minutes in order to determine a control baseline for each analyte flux. Once the baseline was established, a sequence of experiments were performed where varying doses of 2,4 DNP (obtained from Sigma, St. Louis Mo.) were added to the cell media and a 20 minute measurement of analyte flux rates was performed. A control experiment was also performed using the highest dose of 2,4 DNP, but without cells.

[2] = tested on: C2C12 Myoblasts; test: Effect of Rotenone on O2, CO2 and pH flux rates of C2C12 myoblasts (prototype enclosed sample chamber); format: cell-based, murine; design: key to O2 Rate / CO2 Rate: flux rate in nmol/minute; details: for CO2 Rate / O2 Rate / pH Rate: 20 minute measurement
Text: as §1, §2, §3
Rotenone is known to inhibit cellular respiration by blocking NADH dehydrogenase in the respiratory chain. C2C12 Myoblasts were used to show this effect. 1.5×10^5 C2C12 myoblasts were seeded on membranes, incubated and placed in the measurement system along with 150 μl NaHCO3-free DMEM medium of as described in Example 3.
as §4, with “Rotenone” for “2,4 DNP”, “Rotenone,” for “2,4 DNP,”

[3] = tested on: CHO-M3 cells; test: Effect of carbachol on O2 consumption, CO2 production and extracellular acidification rates of CHO-M3 cells (stop flow cycles); format: cell-based, Chinese hamster
Text: Chinese hamster ovary (CHO) cells were transfected to over-express the muscarinic receptor subtype m3. The prototype device described in Example 1 was then used to monitor O2 consumption, CO2 production, and extracellular acidification rates, following treatment with the well-known, general acetylcholine receptor agonist, Carbachol.
Materials and Methods: Cell culture reagents were obtained from Gibco BRL (Grand Island, N.Y.). Carbachol was purchased from Sigma Chemical Co. (St. Louis, Mo.). Bicarbonate-free DMEM medium was obtained from Specialty Media (Phillipsburg, N.J.). Polycarbonate membrane snapwells (12 mm diameter, 3 μm pore size) were obtained from Corning (Corning, N.Y.). CHO cells expressing m3-muscarinic receptors (CHO-M3 cells) were obtained from the American Type Tissue Culture (ATCC; Manassas, Va.). Cells were cultured in Ham's F-12 medium supplemented with 10% fetal bovine serum (Hyclone), 1% GlutaMax and 0.1% Gentamicin and were maintained in a 5% CO2 incubator. Cells were subcultured when they reached 80% confluency. CHO-M3 cells were seeded at a density of 2×10^5 onto a snapwell 24 hours prior to use. Immediately prior to testing, cells on snapwells were switched to bicarbonate-free DMEM medium combined with 3.7 g/l NaCl to maintain osmolarity (medium pH 7.4-7.5).
Protocol Description: Probes were calibrated immediately prior to testing. The bottom of the test vessel was filled with bicarbonate-free medium. The snapwell was removed from a 5% CO2 incubator, and the regular growth medium (Ham's F-12) was replaced with bicarbonate-free DMEM medium. Thereafter, the snapwell was placed into the test vessel. Bicarbonate-free medium was pipetted onto the top of the snapwell, and the cover piece of the test vessel was placed gently on top of the snapwell and screwed into place, compressing the assembly. The probe software was started, and the pH, CO2 and O2 analytes were measured over the next 3.5 hours. Following the initial 1.5 hours of perfusion at a rate of 78 μl/min, a series of stop flow (10 minutes each) and medium re-perfusion (10 minutes each, 78 μl/min) cycles were started. During the last 2 minutes of medium re-perfusion cycle number 5, 100 μM carbachol was perfused across the snapwell. During re-perfusion number 6, bicarbonate-free DMEM medium was once again perfused across the snapwell. A rate of change for the analytes was calculated during each stop flow cycle.
The first four series of perfusion/stop flow cycles were done to establish a noise band on the three analytes prior to carbachol treatment during perfusion number 5. Bicarbonate-free medium re-perfusion during per perfusion number 6 and the rates calculated during stop flow number 6 were to assess potential continuing post-carbachol treatment effects on analytes' rates. Resulting data are shown below in Table 6 and in FIG. 11.

[4] = Rotenone dose 25 (unit not given)
[5] = Rotenone dose 50 (unit not given)
[6] = Rotenone dose 100 (unit not given)
[7] = Rotenone dose 200 (unit not given)
[8] = Stop Flow 5, after 2-minute exposure to 100 μM carbachol
[9] = Stop Flow 6, post-carbachol, after re-perfusion with bicarbonate-free medium

## O=[N+]([O-])c1ccc(O)c([N+](=O)[O-])c1 [2,4 DNP]
[1]; 2,4 DNP dose 10 μm
  CO2/O2: 2.18
  O2/pH: 0.46
  CO2 Rate: 2.78 nM/min
  O2 Rate: 1.26 nM/min
  pH Rate: 0.028 pH/min
[1]; 2,4 DNP dose 50 μm
  CO2/O2: 2.13
  O2/pH: 0.64
  CO2 Rate: 4.24 nM/min
  O2 Rate: 1.99 nM/min
  pH Rate: 0.031 pH/min
[1]; 2,4 DNP dose 100 μm
  CO2/O2: 2.00
  O2/pH: 0.73
  CO2 Rate: 4.59 nM/min
  O2 Rate: 2.30 nM/min
  pH Rate: 0.032 pH/min
[1]; over doses of Table 3
  O2 consumption rates (effect of treatment): dose-dependent increase
  extracellular acidification (effect of treatment): little effect

## C=C(C)[C@H]1Cc2c(ccc3c2O[C@@H]2COc4cc(OC)c(OC)cc4[C@@H]2C3=O)O1 [Rotenone]
[2]; [4]
  CO2/O2: 4.00
  O2/pH: 0.17
  CO2 Rate: 1.76
  O2 Rate: 0.44
  pH Rate: 0.026
[2]; [5]
  CO2/O2: 8.02
  O2/pH: 0.08
  CO2 Rate: 2.08
  O2 Rate: 0.26
  pH Rate: 0.031
[2]; [6]
  CO2/O2: 12.18
  O2/pH: 0.09
  CO2 Rate: 2.34
  O2 Rate: 0.19
  pH Rate: 0.023
[2]; [7]
  CO2/O2: 69.84
  O2/pH: 0.02
  CO2 Rate: 2.24
  O2 Rate: 0.04
  pH Rate: 0.027
[2]; over doses of Table 4
  O2 consumption rate (effect of treatment): dose-dependent decrease

## C[N+](C)(C)CCOC(N)=O [carbachol, Carbachol]
[3]; 2-minute exposure to carbachol
  CO2 rate versus baseline: increases above baseline levels
  O2 rate versus baseline: increases above baseline levels
[3]; 2-minute exposure to carbachol, 0.01 PHU/min baseline
  change in pH rate versus average baseline: doubling
[3]; [8]
  CO2 Rate: 0.20 nmol/min
  O2/CO2 Ratio: 1.99
  O2/pH Ratio: 0.26
  O2 Rate: 0.40 nmol/min
  pH Rate: 0.02 PHU/min
[3]; [9]
  CO2 Rate: 0.10 nmol/min
  O2/CO2 Ratio: 3.34
  O2/pH Ratio: 0.29
  O2 Rate: 0.33 nmol/min
  pH Rate: 0.01 PHU/min
[3]; stop flow period number 6
  Post-treatment rates versus pre-treatment values: essentially returned to pre-treatment values
